Earlier results on 1 molecule are cited in article PMC2988205 (Medicinal Chemistry Research, 2009).

The data set concerns β3-AR. The note with it: read-out: β3 EC50; β3-AR partial agonist; ref Naylor et al., 1998.

Take `C[C@H](Cc1ccc(OCC(=O)O)cc1)NC[C@H](O)c1cccc(Cl)c1` [BRL-37344]: the 50% effective concentration (EC50) was 450 nM.
